Biological target: Methylosome protein 50/Protein arginine N-methyltransferase 5 (Homo sapiens, UniProt O14744+Q9BQA1)
Experiment: Inhibition of recombinant N-terminal FLAG-tagged human full-length PRMT5/full length human MEP50 extracted from baculovirus expression system using [3H]-SAM as substrate preincubated for 15 mins followed by substrate addition and measured after 60 mins by multimode plate reader analysis

Chain of Methylosome protein 50/Protein arginine N-methyltransferase 5 (O14744 whole entry): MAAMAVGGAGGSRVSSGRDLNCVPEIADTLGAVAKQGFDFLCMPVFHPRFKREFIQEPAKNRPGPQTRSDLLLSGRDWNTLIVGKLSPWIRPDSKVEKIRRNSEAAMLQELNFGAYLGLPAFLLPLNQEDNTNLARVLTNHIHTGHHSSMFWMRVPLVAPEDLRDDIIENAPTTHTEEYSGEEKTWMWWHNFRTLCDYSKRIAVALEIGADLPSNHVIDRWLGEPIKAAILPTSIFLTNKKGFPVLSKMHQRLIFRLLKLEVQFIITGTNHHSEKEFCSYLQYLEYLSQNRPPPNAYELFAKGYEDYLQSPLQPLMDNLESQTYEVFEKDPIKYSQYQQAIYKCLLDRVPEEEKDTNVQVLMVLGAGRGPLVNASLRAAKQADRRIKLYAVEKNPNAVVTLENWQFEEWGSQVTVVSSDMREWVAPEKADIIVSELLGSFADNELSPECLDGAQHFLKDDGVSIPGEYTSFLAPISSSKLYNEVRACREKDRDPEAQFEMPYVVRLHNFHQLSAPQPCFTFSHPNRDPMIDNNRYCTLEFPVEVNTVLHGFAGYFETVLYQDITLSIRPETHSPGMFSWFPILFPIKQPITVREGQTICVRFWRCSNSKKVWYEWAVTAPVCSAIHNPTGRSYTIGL
Chain of Methylosome protein 50/Protein arginine N-methyltransferase 5 (Q9BQA1 whole entry): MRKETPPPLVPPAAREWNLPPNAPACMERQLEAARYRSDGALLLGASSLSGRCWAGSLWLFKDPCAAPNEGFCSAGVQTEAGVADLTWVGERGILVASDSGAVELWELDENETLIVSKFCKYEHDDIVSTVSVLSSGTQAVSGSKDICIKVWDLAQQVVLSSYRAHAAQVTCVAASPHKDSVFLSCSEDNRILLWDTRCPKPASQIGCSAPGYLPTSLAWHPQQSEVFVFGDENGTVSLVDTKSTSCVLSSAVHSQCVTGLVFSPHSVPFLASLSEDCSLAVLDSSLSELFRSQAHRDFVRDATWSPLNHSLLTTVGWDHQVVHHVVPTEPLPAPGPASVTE

## CC(=O)N1CCC(Nc2cc3c(cn2)C2(CC2)CN(C[C@H](O)CN2CCc4ccccc4C2)C3=O)CC1 [US20240116918, Example 1]
  IC50: 33 nM

— BindingDB's records for PubMed 39722476 (Nanjing University of Chinese Medicine)
